For series [1], the system named is plasma testosterone level in Brown-Norway rats. The experiment in a line: Subcutaneous osmotic pump infusion of tetrapeptides, plasma testosterone (Example I). The note with it: 377 ng/kg/d, ~54 day-old rats, vs water. It counts as in vivo. As to the method:
Osmotic pumps. Model 2006 osmotic pumps, infusing 0.15 μL/hr, were purchased from Alzet (Cupertino, CA). The peptide concentration loaded into the pumps was adjusted to deliver the doses indicated in each figure. The pump infusion rates varied by production lot and were adjusted accordingly. Pumps were loaded 24 hrs prior to surgical implantation under sterile conditions and were kept at 37° C. in PBS.
(§1) Animal handling, blood collections, surgical procedures, and oral administration of peptides. Brown-Norway rats aged 22-28, 36-42, or 50-56 days-old were purchased from Charles River Laboratories (Senneville, Quebec) and aged until needed. Rats were kept on a 12 L/12 D day cycle with lights on at 7 AM and access to food and water ad libitum.
(§2) For all experiments, plasma samples were obtained via percutaneous jugular puncture and collected in EDTA KE/1.3 tubes (Sarstedt, Numbrecht, Germany, Cat #5072511). Blood collection time points are indicated in each figure legend. Samples were centrifuged at 1 300 RCF for 10 min, and the plasma was stored in 2 mL Wheaton glass vials (Fisher Scientific, Hampton, NH, Cat #03 337 21A) and kept at −20° C. until needed.
Brown-Norway rats aged ˜29 day-old were implanted with osmotic infusion pumps in the interscapular region under general anesthesia with isoflurane following antisepsis using iodine. The surgical wound was closed with two to three staples that were removed a week after the surgery. Subcutaneous carprofen (Zoetis, Parsippany, NJ) was given before the surgical procedure and in the following two days for pain management.
(§3) Plasma steroid measurements. Testosterone levels were measured using Cayman (Ann Arbor, MI) EIA kit Cat #582701, and corticosterone levels were measured using Cayman EIA kit Cat #501320. All samples were measured in duplicate according to the manufacturer's instructions. Samples were diluted until the average control levels fitted the middle of the standard curve. The number of animals used for each experiment is noted in the corresponding figure legend.

The test system is the same in series [2]. The experiment in a line: Oral administration (gavage) of peptides, plasma testosterone. The series is classed as in vivo. The note with it: oral gavage ~580 μg/kg, 3 hrs sampling time. As to the method: Peptides. Peptides were obtained from CanPeptide (Montreal, Quebec) with >95% purity. All peptides were dissolved in molecular grade, sterile double distilled water to obtain a 1 mM stock solution and stored at −20° C. Peptides used for oral screenings were prepared from 1 mM peptide stock and diluted in sterile tap water in a total volume of 1 mL. Peptides used for pharmacokinetic experiments were diluted at 10 mg/ml using sterile tap water. Some of the peptides were chemically modified after synthesis. The following table summarizes the peptides that have been tested:
as §1, §2
(§4) For all oral experiments, administration via gavage began between 8:30-8:50 am with a 3-minute delay between each rat. Animals used for pharmacokinetic studies were fasted for 4 hrs before starting gavage at 1 pm with a 3-minute delay between each rat.
as §3

Series [3] in a line: Peptide stability in plasma. It counts as in vitro ADME, Brown-Norway rats. Here is the method: Peptide stability in plasma, oral pharmacokinetics, and quantification. For peptide stability experiments, plasma from Brown-Norway rats age 90-140 days was collected and stored at −20° C. until further use. The plasma was thawed, spun at 12 000 RPM for 10 min, and kept at 4° C. 4 μM of the various peptides were incubated with 100 μL of plasma that was warmed at 37° C. for 10 min before use. After 1, 15, 30, 60, 90 or 120 minutes, the plasma/peptide samples were crashed with 300 μL of 100% methanol, spun at 14 000 RPM for 10 min, and the supernatant collected. The methanol in the supernatant was evaporated and the samples were re-extracted. The final pellet was solubilized in 5 μL methanol followed by the addition of 100 μL of sterile double distilled water. The extracted samples were transferred to plastic tubes and placed in the autoloader of the mass spectrometer.
(§5) The analytical instrumentation consisted of a Thermo-Scientific ISQ Quantiva Triple Quadrupole Mass Spectrometer (QQQ), incorporating a heated electrospray ionization (HESI) source, and a Thermo-Scientific UltiMate™ 3000 UHPLC system (including, UltiMate™ 3000 RS autosampler). Analytical conditions were developed using a reference standard in a solution containing 5 μM of the corresponding peptide. The chromatography was resolved by isocratic elution of a binary solvent system incorporating (A) 0.1% Formic Acid (aq) and (B) ACN+0.1% FA and using an Agilent Eclipse Plus™ C18 analytical column (100 mm×2.1 mm ID, 1.8 μm particle). A 5 μL injection volume and solvent flow rate of 150 μL/min were used. The MS/MS acquisition time was 7 min and total run time was 8.3 min/injection. The triple Quadrupole MS/MS instrumentation conditions were as follows: the HESI source voltage was 3200 V, the sheath gas […], auxiliary gas 20 L/min, sweep gas 2.0 L/min, the ion transfer temperature was 350° C., the vaporizer temperature was 350° C., the CID gas was 1.5 (mTorr) and the dwell time was 100 msec. The Q1 Resolution (FWHM) was 0.4 (unitless) and the Q3 resolution (FWHM) was 0.7 (unitless). The instrument ran in a selected reaction monitoring (SRM), positive ion detection mode at various collision energies (CE) for the following mass transitions: • Ac-RITQdS-NH2: p84 (m/z 645→m/z 295, m/z 396) • RdVTQ: p72 (m/z 503→m/z 211). • Ac-RdITQ-NH2: p87 (m/z 558→m/z 391, m/z 267) • RVTQ: p64 (m/z 503→m/z 211; m/z 503→m/z 357 and m/z 503→m/z 256) • KVSQ: p95 (m/z 461→m/z 129) and (m/z 461→m/z 234)

The nature of series [4]: Oral pharmacokinetics after single oral dose. The note with it: single oral dose of 10 mg peptide, gavage. It counts as in vivo, Brown-Norway rats. Here is the method: as §4
For oral pharmacokinetic experiments, jugular blood samples were collected following a single oral dose of 10 mg peptide in 1 ml of vehicle after 5, 15, 30, 45, 60, 90, and 120 minutes. Protein inhibitor cocktail (ROCHE, cOmplete protein inhibitors, Cat #11697498001), which was added into the EDTA collection tubes, was used for KVSQ and RVTQ peptides. Plasma was immediately extracted, and 100 μL of plasma were crashed with 300 μL of 100% methanol, spun at 14 000 RPM for 10 min, and the supernatant harvested. Re-extraction of the precipitant and solubilization of the pellet were as described above.
as §5, with “The instrument ran in a selected reaction monitoring (SRM), positive ion detection mode at various collision energies (CE) for the following mass transitions: • Ac-RITQdS-NH2: p84 (m/z 645→m/z 295, m/z 396) • RdVTQ: p72 (m/z 503→m/z 211). • Ac-RdITQ-NH2: p87 (m/z 558→m/z 391, m/z 267) • RVTQ: p64 (m/z 503→m/z 211; m/z 503→m/z 357 and m/z 503→m/z 256) • KVSQ: p95 (m/z 461→m/z 129) and (m/z 461→m/z 234)” left out

Series [5] relates to plasma testosterone level in Brown-Norway rats. The experiment in a line: Subcutaneous osmotic pump infusion of TV159-172 derivatives and N163-166, plasma testosterone (Example II). The series is classed as in vivo. The note with it: 309 ng/kg/day, 7 days after implantation. Here is the method:
(§6) Animal handling, serum, plasma, and intratesticular sample collection. Brown-Norway rats aged 36-42 days old were purchased from Charles River and aged until ˜60 days old. Rats were kept on a 12 L/12 D day cycle with lights on at 7 AM and had access to food and water ad libitum.
(§7) Jugular samples were collected via percutaneous puncture and samples were collected in EDTA coated tubes (plasma) and centrifuged at 1,300 RCF for 10 min and stored in 2 mL Wheaton glass vials (Fisher Scientific, Hampton, NH, Cat #03 337 21A) and kept at −20° C. Animals were handled according to protocols approved by the McGill University Animal Care and Use Committee, which included standard operating procedures for the amount and frequency of blood sample collections.
(§8) Hormone measurements. Testosterone levels were measured using Cayman (Ann Arbor, MI) EIA kit Cat #582701 and corticosterone levels were measured using Cayman EIA kit Cat #501320. Plasma fluid samples were diluted until controls fitted the middle of the standard curve used.
(§9) Osmotic pumps. Alzet 2006 osmotic pumps were purchased from Alzet (Cupertino, CA) with an infusion rate of 0.15 μL/hr. The peptide concentration loaded into the pumps accounted for weight gain at the time of collection and was adjusted to deliver the doses indicated in each figure. The pump infusion rates varied by production lot and were adjusted accordingly. […]

In series [6] the test system is plasma corticosterone level in Brown-Norway rats. In words: Subcutaneous osmotic pump infusion of TV159-172 derivatives and N163-166, plasma corticosterone (Example II). The series is classed as in vivo. The note with it: 40 days after implantation. Here is the method: as §6, §7, §8, §9

Structures are written as SMILES. Peptide text beside a SMILES is read from it.

With `CC(C)[C@H](NC(=O)[C@@H](N)CCCNC(=N)N)C(=O)N[C@H](C(=O)N[C@@H](CCC(N)=O)C(=O)O)[C@@H](C)O` [RVTQ] (H-RVTQ-OH), the “increase in plasma testosterone levels” value in series [1] is “two-fold”. For the same compound, the testosterone levels result was “did not show an effect” in series [2] and “significantly increased” in series [5]. The “half-life in plasma (rank order)” value in series [3] (4 μM peptide (KVSQ 12.5 μM) in 100 μL rat plasma, 37° C., 1-120 minutes) was “Ac-RITQdS-NH2>RdVTQ>Ac-RdITQ-NH2>RITQ>RVTQ>KVSQ”. Besides, in series [3] (in vitro rat plasma incubation), the “stability / degradation in plasma” value was “rapid time-dependent degradation”. Further, the “circulating peptide levels (detection)” value in series [4] is “not detected”. Besides, the values for the corticosterone levels entry in series [6] (23 ng/kg/day) and in series [6] (treatment inducing testosterone formation (309 ng/kg/day)) were “decreased” and “not affected”, respectively.

The record behind these values is patent US12324839B2, “Testosterone-inducing peptide compounds and associated combinations” (THE ROYAL INSTITUTION FOR THE ADVANCEMENT OF …, priority 2018, dated 2025).
